According to ChEMBL document CHEMBL1146405, “Dioncophylline A as a growth-retarding agent against the herbivorous insect Spodoptera littoralis: structure-activity relationships” (J Nat Prod, 1997):

Test system: Spodoptera littoralis
Test: Insecticidal activity against Spodoptera littoralis larvae assessed per gram of fresh weight of diet administered through artificial diet measured after 6 days
Format: functional, organism-based

Row | SMILES | EC50
1 | CCCCCCCCCCCC(=O)Oc1c(-c2c(C)cc(OC)c3c(OC)cccc23)ccc2c1[C@@H](C)N(C=O)[C@H](C)C2 | > 750 µg/g
2 | COc1cccc2c(-c3ccc4c(c3OCc3ccc([N+](=O)[O-])cc3)[C@@H](C)N[C@H](C)C4)c(C)cc(OC)c12 | 25.6 µg/g
3 | COc1cccc2c(-c3ccc4c(c3OCc3ccc(Cl)cc3)[C@@H](C)N[C@H](C)C4)c(C)cc(OC)c12 | 16.4 µg/g
4 | COc1cccc2c(-c3ccc4c(c3OCc3ccc(C(F)(F)F)cc3)[C@@H](C)N[C@H](C)C4)c(C)cc(OC)c12 | 35.1 µg/g
5 | COc1c(-c2c(C)cc(OC)c3c(OC)cccc23)ccc2c1[C@@H](C)N(C=O)[C@H](C)C2 | 171 µg/g
6 | COc1cccc2c(-c3ccc4c(c3OCc3ccc(Br)cc3)[C@@H](C)N[C@H](C)C4)c(C)cc(OC)c12 | 15.6 µg/g
7 | COc1cccc2c(-c3ccc4c(c3O)[C@@H](C)N(C)[C@H](C)C4)c(C)cc(OC)c12 | 377 µg/g
8 | COc1cccc2c(-c3cc(Br)c4c(c3O)[C@@H](C)N[C@H](C)C4)c(C)cc(OC)c12 [5-BROMODIONCOPHYLLINE A] | 193 µg/g
9 | COc1cccc2c(-c3ccc4c(c3OC(C)=O)[C@@H](C)N(C=O)[C@H](C)C4)c(C)cc(OC)c12 [8-O-ACETYL-N-FORMYLDIONCOPHYLLINE A] | 361 µg/g
10 | COc1cccc2c(-c3ccc4c(c3OC(=O)c3ccccc3)[C@@H](C)N(C=O)[C@H](C)C4)c(C)cc(OC)c12 [8-O-BENZOYL-N-FORMYLDIONCOPHYLLINE A] | 132 µg/g
11 | COc1cccc2c(-c3ccc4c(c3OCc3ccccc3)[C@@H](C)N(C=O)[C@H](C)C4)c(C)cc(OC)c12 [8-O-BENZYL-N-FORMYLDIONCOPHYLLINE A] | 67.1 µg/g
12 | COc1cccc2c(-c3ccc4c(c3OCc3ccccc3)[C@@H](C)N[C@H](C)C4)c(C)cc(OC)c12 [8-O-BENZYLDIONCOPHYLLINE A] | 27.1 µg/g
13 | COc1cccc2c(-c3ccc4c(c3OC(C)C)[C@@H](C)N[C@H](C)C4)c(C)cc(OC)c12 [8-O-ISOPROPYLDIONCOPHYLLINE A] | 94.1 µg/g
14 | CCCCOc1c(-c2c(C)cc(OC)c3c(OC)cccc23)ccc2c1[C@@H](C)N(C=O)[C@H](C)C2 [8-O-N-BUTYL-N-FORMYLDIONCOPHYLLINE A] | 182 µg/g
15 | COc1cccc2c(-c3ccc4c(c3O)[C@@H](C)N[C@H](C)C4)c(C)cc(OC)c12 [DIONCOPHYLLINE A] | 277 µg/g
16 | COc1cccc2c(-c3ccc4c(c3OC(C)=O)[C@@H](C)N(C(C)=O)[C@H](C)C4)c(C)cc(OC)c12 [N-ACETYL-8-O-ACETYLDIONCOPHYLLINE A] | 331 µg/g
17 | COc1cccc2c(-c3ccc4c(c3O)[C@@H](C)N(C(C)=O)[C@H](C)C4)c(C)cc(OC)c12 [N-ACETYLDIONCOPHYLLINE A] | 291 µg/g
18 | COc1cccc2c(-c3ccc4c(c3OC(C)C)[C@@H](C)N(C=O)[C@H](C)C4)c(C)cc(OC)c12 [N-FORMYL-8-O-ISOPROPYLDIONCOPHYLLINE A] | 130 µg/g
19 | COc1cccc2c(-c3ccc4c(c3OC(=O)C(C)(C)C)[C@@H](C)N(C=O)[C@H](C)C4)c(C)cc(OC)c12 [N-FORMYL-8-O-PIVALOYLDIONCOPHYLLINE A] | 333 µg/g
20 | COc1cccc2c(-c3ccc4c(c3O)[C@@H](C)N(C=O)[C@H](C)C4)c(C)cc(OC)c12 [N-FORMYLDIONCOPHYLLINE A] | 454 µg/g
